Reference: ChEMBL document CHEMBL2384968, “Characterization of maleimide-based glycogen synthase kinase-3 (GSK-3) inhibitors as stimulators of steroidogenesis” (J Med Chem, 2013)
Converted amounts (≈) assume the structure as drawn.

Legend:
[1] = Cytotoxicity against mouse MA-10 cells at 0.1 to 100 uM after 2 hrs by MTT assay; format: cell-based; details: ma-10, 2 h
[2] = target: Glycogen synthase kinase-3 beta (Homo sapiens, UniProt P49841); assay: Inhibition of human GSK3beta-mediated YRRAAVPPSPSLSRHSSPHQ(pS)EDEEE phosphorylation
Sequence of Glycogen synthase kinase-3 beta (P49841 whole entry): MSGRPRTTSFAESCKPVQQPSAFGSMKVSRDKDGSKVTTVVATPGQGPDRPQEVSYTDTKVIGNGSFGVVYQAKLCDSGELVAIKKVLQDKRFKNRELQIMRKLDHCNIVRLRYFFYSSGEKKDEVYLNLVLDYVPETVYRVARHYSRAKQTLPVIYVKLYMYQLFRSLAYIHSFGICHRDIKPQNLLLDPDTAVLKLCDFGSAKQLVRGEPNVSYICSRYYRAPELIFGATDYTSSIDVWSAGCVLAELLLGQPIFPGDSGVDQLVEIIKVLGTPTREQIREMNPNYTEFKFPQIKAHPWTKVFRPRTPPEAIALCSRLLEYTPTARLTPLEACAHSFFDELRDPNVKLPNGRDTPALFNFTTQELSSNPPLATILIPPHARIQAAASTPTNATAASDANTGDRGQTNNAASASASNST

[3] = Cytotoxicity against mouse MA-10 cells at 100 uM after 2 hrs by MTT assay; format: cell-based; details: ma-10, 2 h
[4] = Kinetic aqueous solubility of the compound by HPLC analysis; format: physicochemical; details: read-out: Kinetic_solubility

SMILES | Activity [1] | IC50 [2] [nM] | Activity [3] | solubility kinetic [4] [µg/mL]
O=C1NC(=O)C(c2cn3c4c(cc(F)cc24)CNCC3)=C1c1coc2ccccc12 | Toxic | 3.7 | Toxic | –
O=C1NC(=O)C(c2cn3c4c(cc(Br)cc24)CNCC3)=C1c1coc2ccccc12 | Toxic | 11.5 | Toxic | –
O=C1NC(=O)C(c2cn3c4c(cccc24)CN(C(=O)c2cnccn2)CC3)=C1c1coc2ccccc12 | Toxic | 0.2 | Toxic | –
O=C1NC(=O)C(c2cn3c4c(cccc24)CN(C(=O)Cc2ccncc2)CC3)=C1c1coc2ccccc12 | Toxic | 0.59 | Toxic | –
O=C1NC(=O)C(c2cn3c4c(cc(F)cc24)CN(C(=O)N2CCCCC2)CC3)=C1c1coc2ccccc12 | Non-toxic | 1.9 | – | –
O=C1NC(=O)C(c2cn3c4c(cc(F)cc24)CN(C(=O)N2CCC(N4CCCCC4)CC2)CC3)=C1c1coc2ccccc12 | Toxic | 0.53 | Toxic | –
O=C1NC(=O)C(c2cn3c4c(cc(F)cc24)CN(C(=O)N2CCOCC2)CC3)=C1c1coc2ccccc12 | Toxic | 0.013 | Toxic | –
O=C1NC(=O)C(c2cn(CCO)c3ccc(Br)cc23)=C1c1coc2ccccc12 | – | 21.4 | – | –
O=C1NC(=O)C(c2cn(CCO)c3ccc(F)cc23)=C1c1coc2ccccc12 | – | 4.8 | – | –
O=C1NC(=O)C(c2cn(CCCO)c3ccc(F)cc23)=C1c1coc2ccccc12 | – | 15 | – | –
NCCn1cc(C2=C(c3coc4ccccc34)C(=O)NC2=O)c2cc(Br)ccc21 | – | 116 | – | 180 (≈ 400 µM)
NCCn1cc(C2=C(c3coc4ccccc34)C(=O)NC2=O)c2cc(F)ccc21 | – | 41.1 | – | –
CNCCCn1cc(C2=C(c3coc4ccccc34)C(=O)NC2=O)c2cc(Br)ccc21 | – | 404 | – | –
CNCCCn1cc(C2=C(c3coc4ccccc34)C(=O)NC2=O)c2cc(F)ccc21 | – | 202 | – | –
COCCn1cc(C2=C(c3coc4ccccc34)C(=O)NC2=O)c2ccccc21 | Non-toxic | 19.8 | Non-toxic | –
COCCn1cc(C2=C(c3coc4ccccc34)C(=O)NC2=O)c2cc(F)ccc21 | – | 39.7 | – | –

SMILES | Activity [1] | IC50 [2] [nM] | Activity [3] | solubility kinetic [4] [µg/mL]
COCCn1cc(C2=C(c3coc4ccccc34)C(=O)NC2=O)c2cc(Br)ccc21 | – | 82.3 | – | –
COCCn1cc(C2=C(c3coc4ccccc34)C(=O)NC2=O)c2cc(F)c(F)cc21 | Toxic | 35.7 | Toxic | –
Cn1cc(C2=C(c3coc4ccccc34)C(=O)NC2=O)c2cc(Br)cnc21 | Non-toxic | 5.3 | Non-toxic | –
COCCn1cc(C2=C(c3coc4ccccc34)C(=O)NC2=O)c2cc(Br)cnc21 | Non-toxic | 25.2 | Non-toxic | –
Cn1cc(C2=C(c3coc4ccccc34)C(=O)NC2=O)c2cccnc21 | – | 17.6 | – | –
COCCn1cc(C2=C(c3coc4ccccc34)C(=O)NC2=O)c2cccnc21 | Toxic | 58.2 | Toxic | –
COc1cc2c(C3=C(c4coc5ccccc45)C(=O)NC3=O)cn(C)c2cn1 | Non-toxic | 65.9 | – | –
COCCn1cc(C2=C(c3coc4ccccc34)C(=O)NC2=O)c2cc(OC)ncc21 | – | 127 | – | –
Cn1cc(C2=C(c3cnc4ccccn34)C(=O)NC2=O)c2cc3c(cc21)OCO3 | – | 5.3 | – | –
Cn1cc(C2=C(c3cnc4ccccn34)C(=O)NC2=O)c2cc(Br)ccc21 | Non-toxic | 0.87 | – | 35 (≈ 83.1 µM)
COCCc1cccc2c(C3=C(c4coc5ccccc45)C(=O)NC3=O)cn(C)c12 | Non-toxic | 11.2 | Non-toxic | –
Cn1cc(C2=C(c3coc4ccccc34)C(=O)NC2=O)c2cccc(CCOC(C)(C)C)c21 | – | 148 | – | –
COCCc1cccc2c(C3=C(c4coc5ccccc45)C(=O)NC3=O)cn(CCOC)c12 | Toxic | 114 | Toxic | –
O=C1NC(=O)C(c2cn3c4c(cccc24)CNCC3)=C1c1coc2ccccc12 | – | 4.2 | – | 240 (≈ 626 µM)
Cn1cc(C2=C(c3coc4ccccc34)C(=O)NC2=O)c2cc(Br)ccc21 | Non-toxic | – | Non-toxic | –
